Values of other authors, collected in patent publication US20060193783A1, “Low dose corticosteroid composition” (priority 2003, published 2006).

What was measured:
[1] = used nasally

| solubility in water | Structure (SMILES) | nasal irritation [1] |
| --- | --- | --- |
| virtually insoluble in water | CCCC1O[C@@H]2C[C@H]3[C@@H]4CCC5=CC(=O)C=C[C@]5(C)[C@H]4[C@@H](O)C[C@]3(C)[C@]2(C(=O)CO)O1 (some centres unmarked) [Budesonide] |  |
|  | CN1CCCC1=O [N-methyl pyrrolidone] | does not cause any nasal irritation |
